Laboratory results published in US5639881A, “Synthesis and elucidation of pyrimido (4,5-Q) quinazoline derivatives” (priority 1991, dated 1997).
Read-outs that look alike come from different tables or passages of the source.

Columns and labels:
[1] = format: physicochemical
Procedure: Oxygen Reactivity. In order to assess the capability of the title systems to generate reactive oxygen species by quinone/hydroquinone cycling, the rate laws were determined for oxygen oxidation of 43 and 44, Scheme IX. These respective hydroquinones are analogues of 28 and 35 without leaving groups present. As expected, the internal hydrogen bonds of 43 slow oxidation at high pH while the absence of hydrogen bonds in 44 result in stopped flow oxidations under these conditions. However, the crossing of the pH-rate profiles near neutrality (FIG. 3) results in similar rates of oxidation for both systems at physiological pH.
(§1) In aerobic aqueous buffer, both 43 and 44 are converted to the corresponding quinones {Scheme IX) by first-order processes. […] The solid curve of Plot A was generated from the rate law, kobsd =k1 +k2 Ka1 /(aH +Ka1), where k1 is the rate of oxidation of the neutral species (1×10^-3 sec^-1), k2 is the rate of oxidation of the hydroquinone monoanion (0.046 sec^-1), pKa1 is the acid dissociation constant (7.78), and aH is the proton activity determined with a pH meter. The acid dissociation constant obtained from the pH-rate data is nearly the same as the value determined previously, 8.26±0.15.1
(§2) Kinetic Studies of Hydrolysis and Oxidation. The hydrolytic studies of 28 and 35 were carried out in anaerobic aqueous buffer, and the reoxidation studies of 43 and 44 were carried out in aerobic aqueous buffer at 30.0°±0.2° C. The anaerobic experiments were carried out with Thunberg cuvettes as previously described. A dimethyl sulfoxide stock of the compound to be studied was prepared fresh, and 50 μL of this stock was added to 2.95 mL of buffer. The absorbance vs time data were obtained on a PERKIN-ELMER 559 or a Lambda-3 UV-vis spectrophotometer and fit to a first-order rate law.

[2] = format: physicochemical; remark: listed apart in the source
Description: The hydrolysis of 28 was followed spectrophotometrically at 430 nm in anaerobic aqueous buffer over a pH range of 6 to 12 with [28]=5×10^-5 M. Absorbance vs. time plots for hydrolysis are first order in character, with the first-order rate constants (kobsd)independent of buffer concentration but dependent on pH as shown in FIG. 1. The use of known hydroquinone and quinone extinction coefficients at 430 nm permitted the calculation of product yields: 69±1% 38 and 31±1% 39 regardless of the pH (product structures shown in Scheme VI). The accuracy of the yield determinations was enhanced by the intense hydroquinone visible spectrum and the absence of visible absorbances for the quinone derivative. Product isolation studies confirmed the presence of 39.
(§3) The mechanism of 38 and 39 formation from 28 is discussed in conjunction with Scheme VI. The pH-rate data in FIG. 1 indicate that rate-determining chloride elimination occurs from the neutral, monoanion, dianion, and trianion forms of 28. Plateaus corresponding to the first three eliminations are indicated on FIG. 1. The increasing rates above pH 11 may pertain to equilibrium trianion formation and rate-determining elimination of chloride from the trianion. Consideration of rate-determining chloride elimination from the various forms of 28 provides the rate law shown in equation 1 [formula] where the rate and equilibrium constants are those shown in Scheme VI. The numerical values for these constants (shown in Scheme VI) were obtained by computer-fitting the data in FIG. 1 to equation 1. The solid line in FIG. 1 was then generated from equation 1 substituted with these constants. The independently determined pKa for monoanion formation (8.26±0.15) is in agreement with the kinetic pKa value (8.3). Thus, the kinetically-determined pKa values in Scheme VI represent actual acid dissociations rather than mixtures of constants. [drawing 5]
The hydrolysis of 35 in anaerobic buffer proceeds by a first-order process to afford 42 as the sole product. […] The pH-rate profile, obtained over the pH range of 5 to 8, is a straight line of slope +1. […] Computer fitting the pH-rate data to kobsd =k1 Ka1 /aH, and substituting pKa1 =10.3, provides and elimination rate constant of k1 =24 sec^-1.
as §2

[3] = reduced capability to cycle between reduced and oxidized forms; cited from earlier work
physchem = format: physicochemical
Description: as §3, §1

colon and breast cancers = conditions: for IC50: Homo sapiens; for antitumor activity: colon and breast cancers
[4] = lipophilicity (statement)
[5] = quinone methide trapping with added 2-mercaptoethanol; format: physicochemical; conditions: 10 to 100X excess of mercaptoethanol
Description: Chloride elimination from the neutral and anionic forms of 28 affords an equilibrating mixture of protonated (36), neutral (37), and anionic (37^-) quinone methides. Proton trapping by 37^-, in competition with water trapping of 36 and 37, then affords a mixture of 38 and 39. Evidence of steady-state intermediates capable of trapping nucleophiles (36 and 37) was obtained by adding 10 to 100X excess of Z-mercaptoethanol over 28. […] The presence mercaptoethanol results in formation of a hydroquinone (nucleophile-trapped) product 40 and no quinone 39, however. Thus, quinone methide formation must occur in a rate determining step, followed by its relatively rapid trapping by the mercaptide nuceophile. The mercaptoethanol trapping studies of benzimidazole (See: Skibo, E. B., J. Org. Chem. 1986, 51, 522) and quinazoline (See: Lemus et al., op. cit.) based quinone methides likewise provided evidence of a steady-state species.

[6] = value determined previously; cited from earlier work
[7] = aerobic aqueous buffer, 30.0 °C
[8] = read-out: IC50 values as low as
[9] = regardless of pH (pH 6 to 12), 5×10^-5 M, 430 nm

Question: With `Cc1nc2c(O)c3c(=O)n(C)c(C)nc3c(O)c2c(=O)n1C` [compound 44] as the compound, how does the “stability toward oxygen relative to reduced anthracyclines” value [1] read?
Answer: The value was “more stable toward oxygen than reduced anthracyclines”.

Question: What about the “rates of oxidation” value ([1]; at or above pH 9) of the same compound?
Answer: The value was “stopped flow rates”.

Question: What about the “rate of oxidation of the hydroquinone monoanion” value [1, 7] of the same compound?
Answer: Its value is 5.8 s⁻¹.

Question: What about the “rate of oxidation at physiological pH” value [1] of the same compound?
Answer: The value was 9×10^-3 sec^-1.

Question: With `Cc1nc2c(O)c3c(=O)n(C)c(CCl)nc3c(O)c2c(=O)n1C` [compound 35, 2-(Chloromethyl)-5,10-dihydroxy-3,7,8-trimethylpyrimido[4,5-g]quinazoline-4,9(3H,8H)-dione] as the compound, how does the “stability in protic solvent” value ([2]; any protic solvent) read?
Answer: Its value is “rapidly eliminates HCl”.

Question: And the “k1, rate constant for elimination of chloride from the monoanion” value ([2]; monoanion, anaerobic aqueous buffer, 30.0 °C)?
Answer: The value was 24 s⁻¹.

Question: What about the “rates of hydrolysis” value ([2]; much above pH 8) of the same compound?
Answer: The value was “stopped-flow rates”.

Question: With `COc1cccc2c1C(=N)c1c(O)c3c(c(O)c1C2=O)C[C@@](O)(C(C)=O)C[C@@H]3O[C@H]1C[C@H](N)[C@H](O)[C@H](C)O1` [5-iminodaunorubicin] as the compound, how does the “cardiotoxicity” value [3] read?
Answer: Its value is “does reduce cardiotoxicity”.

Question: Which pKa (physchem; anion formation near neutrality, read-out: pKa (conversion to an anion)) does the source give for `O=C1c2nc(CBr)[nH]c(=O)c2C(=O)c2nc(CBr)[nH]c(=O)c21` [compound 19, 2,7-Bis(bromomethyl)pyrimido[4,5-g]quinazoline-4,5,9,10(3H,8H)-tetrone] here?
Answer: The pKa was 6.5.

Question: And the IC50 (colon and breast cancers)?
Answer: The IC50 was greater than 1000 nM.

Question: What about the “antitumor activity” value (colon and breast cancers) of the same compound?
Answer: Its value is “poor activity”.

Question: Which “antitumor activity” value (colon and breast cancers) does the source give for `Cn1c(CCl)nc2c(c1=O)C(=O)c1nc(CCl)n(C)c(=O)c1C2=O` [compound 22, 2,7-Bis(chloromethyl)-3,8-dimethylpyrimido[4,5-g]quinazoline-4,5,9,10(3H8H)-tetrone] here?
Answer: Its value is “inactive”.

Question: For `COc1c2nc(CCl)n(C)c(=O)c2c(OC)c2nc(CCl)n(C)c(=O)c12` [compound 16, 2,7-Bis(chloromethyl)-5,10-dimethoxy-3,8-dimethylpyrimido [4,5-g]quinazoline-4,9(3H,8H)-dione], which “ionization at physiological pH” value (physchem) is on record?
Answer: Its value is “will not ionize at physiological pH”.

Question: And the IC50 (colon and breast cancers; [8])?
Answer: The IC50 was no less than 20 nM.

Question: With `COc1c2nc(CBr)n(C)c(=O)c2c(OC)c2nc(CBr)n(C)c(=O)c12` [compound 17, 2,7-Bis (bromomethyl)-5,10-dimethoxy-3,8-dimethylpyrimido[4,5-g]quinazoline-4,9(3H,8H)-dione] as the compound, how does the “lipophilicity” value [4] read?
Answer: The value was “lipophilic”.

Question: And the “ionization at physiological pH” value (physchem)?
Answer: The value was “will not ionize at physiological pH”.

Question: What about the IC50 (colon and breast cancers; [8]) of the same compound?
Answer: The IC50 was no less than 20 nM.

Question: For `Cc1nc2c(O)c3c(=O)[nH]c(CCl)nc3c(O)c2c(=O)[nH]1` [compound 28, 2-(Chloromethyl)-5,10-dihydroxy-7-methylpryimido[4,5-g]quinazoline-4,9(3H,8H)-dione], which “observed rate constants in presence of 2-mercaptoethanol vs hydrolysis without it” value [5] is on record?
Answer: Its value is “essentially the same”.

Question: What about the pKa (physchem; aqueous buffer, from computer-fit of pH-rate profile of hydrolysis, read-out: kinetic pKa value) of the same compound?
Answer: The pKa was 8.3.

Question: And the “yield of hydrolysis product 38” value [2, 9]?
Answer: Its value is 69±1%.

Question: And the “yield of hydrolysis product 39” value [2, 9]?
Answer: The value was 31±1%.

Question: Which “acid dissociation constant (pKa) determined previously” value [6] does the source give for `Cc1nc2c(O)c3c(=O)[nH]c(C)nc3c(O)c2c(=O)[nH]1` [compound 43] here?
Answer: Its value is 8.26±0.15.

Question: And the “stability toward oxygen relative to reduced anthracyclines” value [1]?
Answer: Its value is “more stable toward oxygen than reduced anthracyclines”.

Question: And the “rate of oxidation of the hydroquinone monoanion” value [1, 7]?
Answer: Its value is 0.046 s⁻¹.

Question: And the “fold slower oxidation of 43^- than 44^-” value ([1]; monoanions)?
Answer: Its value is 128 fold.

Question: And the “k1, rate of oxidation of the neutral species” value ([1]; neutral hydroquinone, aerobic aqueous buffer, 30.0 °C)?
Answer: Its value is 0.001 s⁻¹.

Question: And the “rate of oxidation at physiological pH” value [1]?
Answer: Its value is 1.7×10^-2 sec^-1.

Question: And the pKa (physchem; aerobic aqueous buffer, from pH-rate profile of oxidation, read-out: pKa1 (hydroquinone acid dissociation constant from pH-rate data))?
Answer: The pKa was 7.78.
